Several values for one entry are separate records, joined by “and”; a condition that tells them apart may be missing. Equal entries are not always repeated. Toxic doses and inconclusive results are not listed.
Test system: BDF1 mice, L1210 leukemia sc, survival T/C
Test: NCI In Vivo Anticancer Drug Screen. Data for tumor model L1210 Leukemia (subcutaneous) in B6D2F1 (BDF1) mice
Conditions: endpoint: median survival time, higher = longer survival
Method: The antitumor activity of compounds was measured in mice bearing transplantable tumors. Survival or tumor size were measured and the results are expressed as the measurement made in the treated group (T) divided by the measurement made in the vehicle treated control group (C). The tumor model used in this assay is L1210 Leukemia (subcutaneous) in B6D2F1 (BDF1) mice

[1] = dose: 65.0 mg/kg/injection, schedule: Q01DX Z (sc), vehicle: methylcellulose (MC)
[2] = dose: 108.0 mg/kg/injection, schedule: Q01DX Z (sc), vehicle: methylcellulose (MC)
[3] = dose: 180.0 mg/kg/injection, schedule: Q01DX Z (sc), vehicle: methylcellulose (MC)
[4] = dose: 300.0 mg/kg/injection, schedule: Q01DX Z (sc), vehicle: methylcellulose (MC)
[5] = dose: 500.0 mg/kg/injection, schedule: Q01DX Z (sc), vehicle: methylcellulose (MC)

C[C@]12CCC(=O)C=C1CC[C@@H]1[C@@H]2[C@@H](O)C[C@@]2(C)[C@H]1CC[C@]2(O)C(=O)CO
T/C [1]: 100 % of control | T/C [2]: 100 % of control | T/C [3]: 100 % of control | T/C [4]: 100 % of control | T/C [5]: 100 % of control

O=c1[nH]cc(N(CCCl)CCCl)c(=O)[nH]1
T/C (dose: 0.23 mg/kg/injection, schedule: Q01DX Z (sc), vehicle: other): 100 % of control | T/C (dose: 0.39 mg/kg/injection, schedule: Q01DX Z (sc), vehicle: other): 100 % of control | T/C (dose: 0.65 mg/kg/injection, schedule: Q01DX Z (sc), vehicle: other): 100 % of control | T/C (dose: 1.08 mg/kg/injection, schedule: Q01DX Z (sc), vehicle: other): 100 % of control | T/C (dose: 1.8 mg/kg/injection, schedule: Q01DX Z (sc), vehicle: other): 105 % of control and 110 % of control | T/C (dose: 3.0 mg/kg/injection, schedule: Q01DX Z (sc), vehicle: other): 110 % of control and 115 % of control | T/C (dose: 5.0 mg/kg/injection, schedule: Q01DX Z (sc), vehicle: other): 150 % of control and 160 % of control | T/C (dose: 8.4 mg/kg/injection, schedule: Q01DX Z (sc), vehicle: other): 100 % of control and 120 % of control | T/C (dose: 14.0 mg/kg/injection, schedule: Q01DX Z (sc), vehicle: other): 120 % of control

CS(=O)(=O)OCC(=O)NCCNC(=O)COS(C)(=O)=O
T/C (dose: 39.0 mg/kg/injection, schedule: Q01DX Z (sc), vehicle: methylcellulose (MC)): 105 % of control | T/C [1]: 105 % of control | T/C [2]: 110 % of control | T/C [3]: 110 % of control | T/C [4]: 115 % of control | T/C [5]: 100 % of control

CN(C)c1ccc(/C=C2\C=Cc3ccccc32)cc1
T/C (dose: 180.0 mg/kg/injection, schedule: Q01DX Z (sc), vehicle: carboxymethylcellulose (CMC)): 100 % of control | T/C (dose: 300.0 mg/kg/injection, schedule: Q01DX Z (sc), vehicle: carboxymethylcellulose (CMC)): 100 % of control | T/C (dose: 500.0 mg/kg/injection, schedule: Q01DX Z (sc), vehicle: carboxymethylcellulose (CMC)): 105 % of control | T/C (dose: 833.0 mg/kg/injection, schedule: Q01DX Z (sc), vehicle: carboxymethylcellulose (CMC)): 111 % of control

NC(=O)N(CCCl)N=O
T/C (dose: 0.39 mg/kg/injection, schedule: Q01DX Z (sc), vehicle: methylcellulose (MC)): 123 % of control | T/C (dose: 0.65 mg/kg/injection, schedule: Q01DX Z (sc), vehicle: methylcellulose (MC)): 123 % of control | T/C (dose: 0.65 mg/kg/injection, schedule: Q01DX Z (sc), vehicle: saline): 168 % of control | T/C (dose: 1.08 mg/kg/injection, schedule: Q01DX Z (sc), vehicle: methylcellulose (MC)): 247 % of control | T/C (dose: 1.08 mg/kg/injection, schedule: Q01DX Z (sc), vehicle: saline): 273 % of control | T/C (dose: 1.8 mg/kg/injection, schedule: Q01DX Z (sc), vehicle: methylcellulose (MC)): 300 % of control | T/C (dose: 1.8 mg/kg/injection, schedule: Q01DX Z (sc), vehicle: saline): 420 % of control and 526 % of control | T/C (dose: 3.0 mg/kg/injection, schedule: Q01DX Z (sc), vehicle: methylcellulose (MC)): 309 % of control | T/C (dose: 3.0 mg/kg/injection, schedule: Q01DX Z (sc), vehicle: saline): 365 % of control and 463 % of control | T/C (dose: 5.0 mg/kg/injection, schedule: Q01DX001 (sc), vehicle: saline): 157 % of control | T/C (dose: 5.0 mg/kg/injection, schedule: Q01DX Z (sc), vehicle: saline): 270 % of control and 310 % of control | T/C (dose: 5.0 mg/kg/injection, schedule: Q07DX Z (sc), vehicle: saline): 200 % of control | T/C (dose: 8.4 mg/kg/injection, schedule: Q01DX001 (sc), vehicle: saline): 178 % of control | T/C (dose: 8.4 mg/kg/injection, schedule: Q01DX Z (sc), vehicle: saline): 170 % of control | T/C (dose: 8.4 mg/kg/injection, schedule: Q07DX Z (sc), vehicle: saline): 289 % of control | T/C (dose: 14.0 mg/kg/injection, schedule: Q01DX001 (sc), vehicle: saline): 178 % of control | T/C (dose: 14.0 mg/kg/injection, schedule: Q01DX Z (sc), vehicle: saline): 120 % of control | T/C (dose: 14.0 mg/kg/injection, schedule: Q07DX Z (sc), vehicle: saline): 257 % of control | T/C (dose: 23.0 mg/kg/injection, schedule: Q01DX Z (sc), vehicle: saline): 110 % of control | T/C (dose: 23.0 mg/kg/injection, schedule: Q07DX Z (sc), vehicle: saline): 152 % of control

CCCCNc1ncnc2c1cnn2C
T/C (dose: 23.3 mg/kg/injection, schedule: Q01DX Z (sc), vehicle: methylcellulose (MC)): 105 % of control | T/C (dose: 38.9 mg/kg/injection, schedule: Q01DX Z (sc), vehicle: methylcellulose (MC)): 110 % of control | T/C (dose: 64.8 mg/kg/injection, schedule: Q01DX Z (sc), vehicle: methylcellulose (MC)): 110 % of control | T/C [2]: 110 % of control | T/C [3]: 100 % of control

Source: PubChem BioAssay AID250 (DTP/NCI, 2004)
